# Test results published in patent US12617783B2, “Heterocyclic GLP-1R agonists” (BIOMEA FUSION, INC., priority 2024, dated 2026).
# Read-outs that look alike come from different tables or passages of the source.
# Biological target: T1, human GLP-1R (Homo sapiens, UniProt P43220)
# T1 construct: host or cells: HEK293
# Assay: GLP-1R cAMP assay (Example B1a, HTRF, 30 min at room temperature)
# Type: cell-based
# How it was run: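 Competitive HTRF read-out of cAMP after 30 min room-temperature stimulation, BETP absent, of human GLP-1R-HEK293 cells (1,000/well) in HEPES buffer with 500 μM IBMX and 0.1% BSA. Activation normalised to GLP-1(7-37) positive control. EC50 from 4-parameter non-linear regression.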
# [1] = cAMP accumulation in HEK293 expressing human GLP-1R, no BETP, 30 min room temperature (Method B1a, compounds ID 1-609), Table 1, read-out: EC50
# T1 sequence (P43220 24-463): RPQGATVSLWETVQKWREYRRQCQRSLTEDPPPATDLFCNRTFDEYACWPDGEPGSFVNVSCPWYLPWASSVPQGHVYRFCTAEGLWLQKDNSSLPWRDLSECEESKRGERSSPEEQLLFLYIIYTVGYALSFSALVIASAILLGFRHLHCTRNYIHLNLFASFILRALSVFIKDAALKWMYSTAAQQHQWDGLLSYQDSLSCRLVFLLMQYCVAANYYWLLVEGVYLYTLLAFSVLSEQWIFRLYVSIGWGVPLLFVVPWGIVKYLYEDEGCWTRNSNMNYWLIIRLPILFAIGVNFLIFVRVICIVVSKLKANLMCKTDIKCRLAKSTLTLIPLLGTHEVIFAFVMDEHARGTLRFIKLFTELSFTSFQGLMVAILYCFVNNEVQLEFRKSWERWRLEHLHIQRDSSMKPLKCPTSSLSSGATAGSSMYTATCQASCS
Compound,EC50 [1],further results
"Cc1cc(-n2nc3c(c2-n2ccn(-c4ccc5c(cnn5C)c4F)c2=O)[C@@H]2CC[C@H]([C@@H]3F)N2C(=O)c2cc3cc([C@H]4CCOC(C)(C)C4)ccc3n2[C@@]2(c3noc(=O)[nH]3)C[C@@H]2C)cc(C)c1F [Compound 515, 3-[(1S,2S)-1-[5-[(4S)-2,2-dimethyltetrahydropyran-4-yl]-2-[(1S,7S,8R)-7-fluoro-4-(4-fluoro-3,5-dimethyl-phenyl)-3-[3-(4-fluoro-1-methyl-indazol-5-yl)-2-oxo-imidazol-1-yl]-4,5,11-triazatricyclo[6.2.1.02,6]undeca-2,5-diene-11-carbonyl]indol-1-yl]-2-methyl-cyclopropyl]-4H-1,2,4-oxadiazol-5-one]",120 nM,"EC50 Ratio (Table 1d, potency ratio of stereoisomer pair (less potent / more potent isomer)): >44; EC50 (Table 1d, stereoisomer pairs, read-out: EC50): 120 nM; EC50 (text to Table 1d, bridge atoms configured into the plane or away from the reader, read-out: potency (EC50)): < 1000 nM"
"Cc1cc(-n2nc3c(c2-n2ccn(-c4ccc5c(cnn5C)c4F)c2=O)[C@@H]2CC[C@H](C3)N2C(=O)c2cc3ccc(C4CCOC(C)(C)C4)cc3nc2C2(c3noc(=O)[nH]3)CC2)cc(C)c1F (stereo partly drawn) [Compound 126, 3-[1-[7-(2,2-dimethyltetrahydropyran-4-yl)-3-[(1S,8R)-4-(4-fluoro-3,5-dimethyl-phenyl)-3-[3-(4-fluoro-1-methyl-indazol-5-yl)-2-oxo-imidazol-1-yl]-4,5,11-triazatricyclo[6.2.1.02,6]undeca-2,5-diene-11-carbonyl]-2-quinolyl]cyclopropyl]-4H-1,2,4-oxadiazol-5-one]",> 10000 nM,–
"Cc1cc(-n2nc3c(c2-n2ccn(-c4ccc(C(=O)N(C)C5CC5)c(Cl)c4)c2=O)[C@@H]2CCC[C@H](C3)N2C(=O)c2cc3cc([C@H]4CCOC(C)(C)C4)ccc3n2[C@@]2(c3noc(=O)[nH]3)C[C@@H]2C)cc(C)c1F [Compound 543, 2-chloro-N-cyclopropyl-4-[3-[(1S,8R)-12-[5-[(4S)-2,2-dimethyltetrahydropyran-4-yl]-1-[(1S,2S)-2-methyl-1-(5-oxo-4H-1,2,4-oxadiazol-3-yl)cyclopropyl]indole-2-carbonyl]-4-(4-fluoro-3,5-dimethyl-phenyl)-4,5,12-triazatricyclo[6.3.1.02,6]dodeca-2,5-dien-3-yl]-2-oxo-imidazol-1-yl]-N-methyl-benzamide]",≥ 10000 nM,–
"CCP(=O)(CC)c1ccc(-n2ccn(-c3c4c(nn3-c3cc(C)c(F)c(C)c3)C[C@H]3CC[C@@H]4N3C(=O)c3cc4cc(C5CCOCC5)ccc4n3[C@@]3(c4noc(=O)[nH]4)C[C@@H]3C)c2=O)cc1NC [Compound 216, 3-[(1S,2S)-1-[2-[(1S,8R)-3-[3-[4-diethylphosphoryl-3-(methylamino)phenyl]-2-oxo-imidazol-1-yl]-4-(4-fluoro-3,5-dimethyl-phenyl)-4,5,11-triazatricyclo[6.2.1.02,6]undeca-2,5-diene-11-carbonyl]-5-tetrahydropyran-4-yl-indol-1-yl]-2-methyl-cyclopropyl]-4H-1,2,4-oxadiazol-5-one]",233 nM,–
"Cc1cc(-n2nc3c(c2-n2ccn(-c4ccc5c(cnn5C)c4F)c2=O)[C@@H]2CC[C@H](C3)N2C(=O)c2cc3nc([C@H]4CCOC(C)(C)C4)ccc3n2[C@@]2(c3noc(=O)[nH]3)C[C@@H]2C)cc(C)c1F [Compound 217, 3-[(1S,2S)-1-[5-[(4S)-2,2-dimethyltetrahydropyran-4-yl]-2-[(1S,8R)-4-(4-fluoro-3,5-dimethyl-phenyl)-3-[3-(4-fluoro-1-methyl-indazol-5-yl)-2-oxo-imidazol-1-yl]-4,5,11-triazatricyclo[6.2.1.02,6]undeca-2,5-diene-11-carbonyl]pyrrolo[3,2-b]pyridin-1-yl]-2-methyl-cyclopropyl]-4H-1,2,4-oxadiazol-5-one]",907 nM,–
"Cc1cc(-n2nc3c(c2-n2ccn(-c4ccc5c(cnn5C)c4F)c2=O)[C@@H]2CC[C@H](C3)N2C(=O)c2cc3c(OC4CCOC(C)(C)C4)nccc3n2[C@@]2(c3noc(=O)[nH]3)C[C@@H]2C)cc(C)c1F (stereo partly drawn) [Compound 232, 3-[(1S,2S)-1-[4-(2,2-dimethyltetrahydropyran-4-yl)oxy-2-[(1S,8R)-4-(4-fluoro-3,5-dimethyl-phenyl)-3-[3-(4-fluoro-1-methyl-indazol-5-yl)-2-oxo-imidazol-1-yl]-4,5,11-triazatricyclo[6.2.1.02,6]undeca-2,5-diene-11-carbonyl]pyrrolo[3,2-c]pyridin-1-yl]-2-methyl-cyclopropyl]-4H-1,2,4-oxadiazol-5-one]",> 10000 nM,–
"Cc1cc(-n2nc3c(c2-n2ccn(-c4ccc5c(cnn5C)c4F)c2=O)[C@@H]2CC[C@H](C3)N2S(=O)(=O)c2cc3cc(C4CCOC(C)(C)C4)ccc3n2[C@]2(c3noc(=O)[nH]3)C[C@@H]2C)cc(C)c1F (stereo partly drawn) [Compound 504, 3-[(1R,2S)-1-[5-(2,2-dimethyltetrahydropyran-4-yl)-2-[[(1S,8R)-4-(4-fluoro-3,5-dimethyl-phenyl)-3-[3-(4-fluoro-1-methyl-indazol-5-yl)-2-oxo-imidazol-1-yl]-4,5,11-triazatricyclo[6.2.1.02,6]undeca-2,5-dien-11-yl]sulfonyl]indol-1-yl]-2-methyl-cyclopropyl]-4H-1,2,4-oxadiazol-5-one]",1930 nM,–
"CCP(=O)(CC)c1ccc(-n2ccn(-c3c4c(nn3-c3cc(C)c(F)c(C)c3)C[C@H]3CC[C@@H]4N3C(=O)c3cc4cc([C@H]5CCOC(C)(C)C5)ccc4n3[C@@]3(c4noc(=O)[nH]4)C[C@@H]3C)c2=O)cc1NC [Compound 203, 3-[(1S,2S)-1-[2-[(1S,8R)-3-[3-[4-diethylphosphoryl-3-(methylamino)phenyl]-2-oxo-imidazol-1-yl]-4-(4-fluoro-3,5-dimethyl-phenyl)-4,5,11-triazatricyclo[6.2.1.02,6]undeca-2,5-diene-11-carbonyl]-5-[(4S)-2,2-dimethyltetrahydropyran-4-yl]indol-1-yl]-2-methyl-cyclopropyl]-4H-1,2,4-oxadiazol-5-one]",919 nM,–
"Cc1cc(-n2nc3c(c2-n2ccn(-c4ccc5c(cnn5C)c4F)c2=O)[C@@H]2CC[C@H](C3)N2C(=O)c2cc3nc([C@@H]4CCOC(C)(C)C4)sc3n2[C@@]2(c3noc(=O)[nH]3)C[C@@H]2C)cc(C)c1F [Compound 207, 3-[(1S,2S)-1-[2-[(4R)-2,2-dimethyltetrahydropyran-4-yl]-5-[(1S,8R)-4-(4-fluoro-3,5-dimethyl-phenyl)-3-[3-(4-fluoro-1-methyl-indazol-5-yl)-2-oxo-imidazol-1-yl]-4,5,11-triazatricyclo[6.2.1.02,6]undeca-2,5-diene-11-carbonyl]pyrrolo[3,2-d]thiazol-4-yl]-2-methyl-cyclopropyl]-4H-1,2,4-oxadiazol-5-one]",> 10000 nM,–
"Cc1cc(-n2nc3c(c2-n2ccn(-c4ccc5c(cnn5C)c4F)c2=O)[C@@H]2CCC[C@H](C3)N2S(=O)(=O)c2cc3cc(C4CCOCC4)ccc3n2[C@@]2(c3noc(=O)[nH]3)C[C@@H]2C)cc(C)c1F [Compound 533, 3-[(1S,2S)-1-[2-[[(1S,8R)-4-(4-fluoro-3,5-dimethyl-phenyl)-3-[3-(4-fluoro-1-methyl-indazol-5-yl)-2-oxo-imidazol-1-yl]-4,5,12-triazatricyclo[6.3.1.02,6]dodeca-2,5-dien-12-yl]sulfonyl]-5-tetrahydropyran-4-yl-indol-1-yl]-2-methyl-cyclopropyl]-4H-1,2,4-oxadiazol-5-one]",10400 nM,–
"Cc1cc(-n2nc3c(c2-n2ccn(-c4ccn5c(cc(=O)n5C)c4F)c2=O)[C@@H]2CC[C@H](C3)N2C(=O)c2cc3cc([C@H]4CCOC(C)(C)C4)ccc3n2[C@@]2(c3noc(=O)[nH]3)C[C@@H]2C)cc(C)c1F [Compound 429, 3-((1S,2S)-1-(5-((S)-2,2-dimethyltetrahydro-2H-pyran-4-yl)-2-((4S,7R)-3-(3-(4-fluoro-1-methyl-2-oxo-1,2-dihydropyrazolo[1,5-a]pyridin-5-yl)-2-oxo-2,3-dihydro-1H-imidazol-1-yl)-2-(4-fluoro-3,5-dimethylphenyl)-2,4,5,6,7,8-hexahydro-4,7-epiminocyclohepta [c]pyrazole-9-carbonyl)-1H-indol-1-yl)-2-methylcyclopropyl)-1,2,4-oxadiazol-5(4H)-one]",12.2 nM,–
"Cc1cc(-n2nc3c(c2-n2ccn(-c4ccc5c(cnn5C)c4F)c2=O)[C@@H]2CC[C@H](C3)N2C(=O)c2cc3cc(C4CCOC5(C4)CN(C)C5)ccc3n2C2(c3noc(=O)[nH]3)CC2)cc(C)c1F (stereo partly drawn) [Compound 135, 3-[1-[2-[(1S,8R)-4-(4-fluoro-3,5-dimethyl-phenyl)-3-[3-(4-fluoro-1-methyl-indazol-5-yl)-2-oxo-imidazol-1-yl]-4,5,11-triazatricyclo[6.2.1.02,6]undeca-2,5-diene-11-carbonyl]-5-(2-methyl-5-oxa-2-azaspiro[3.5]nonan-8-yl)indol-1-yl]cyclopropyl]-4H-1,2,4-oxadiazol-5-one]",> 10000 nM,–
"CCS(=N)(=O)c1ccc(-n2ccn(-c3c4c(nn3-c3cc(C)c(F)c(C)c3)C[C@H]3CC[C@@H]4N3C(=O)c3cc4cc([C@H]5CCOC(C)(C)C5)ccc4n3[C@@]3(c4noc(=O)[nH]4)C[C@@H]3C)c2=O)c(F)c1 (stereo partly drawn) [Compound 428, 3-((1S,2S)-1-(5-((S)-2,2-dimethyltetrahydro-2H-pyran-4-yl)-2-((4S,7R)-3-(3-(4-(ethylsulfonimidoyl)-2-fluorophenyl)-2-oxo-2,3-dihydro-1H-imidazol-1-yl)-2-(4-fluoro-3,5-dimethylphenyl)-2,4,5,6,7,8-hexahydro-4,7-epiminocyclohepta [c]pyrazole-9-carbonyl)-1H-indol-1-yl)-2-methylcyclopropyl)-1,2,4-oxadiazol-5(4H)-one]",94.8 nM,–
